Laboratory results taken from a melting point compilation (Tetko et al.; mined from patent text by program, amines drawn as free bases though some values may be those of a salt).

Question: With `Nc1nc2nc(NCCCN3CCOCC3)ncc2cc1-c1c(Cl)cccc1Cl` as the molecule, how does the melting point read?
Answer: 224 to 230 °C

Question: Which melting point does the source give for `CCOC(=O)c1cnc(C(=O)O)cn1` here?
Answer: 150 to 153 °C

Question: For `COc1ccccc1C(=O)OC(=C1C(=O)N(C(N)=O)c2cc(Cl)c(F)cc21)c1cccs1`, which melting point is on record?
Answer: 219 to 221 °C

Question: Which melting point does the source give for `COc1cccc(-c2cc(Cl)ncn2)c1` here?
Answer: 112 to 115 °C

Question: Which melting point does the source give for `Cc1nc(-c2ccc(OC(F)(F)F)cc2)sc1C(=O)O` here?
Answer: 179 to 181 °C

Question: Which melting point does the source give for `COC(=O)c1c(I)cccc1Nc1ccccc1C(=O)O` here?
Answer: 191 to 193 °C

Question: For `CC(=O)OCCCN1CCC(CNC(=O)[C@@H]2CCCN2S(=O)(=O)c2ccc(Cl)c(COc3cccc4c(-n5ccnc5)cc(C)nc34)c2Cl)CC1`, which melting point is on record?
Answer: 96 °C

Question: Which melting point does the source give for `O=C(Nc1ccc(Cl)c2c(Cl)ccnc12)c1c(Cl)cccc1Cl` here?
Answer: 243 to 247 °C

Question: Which melting point does the source give for `CCc1cc(CCNc2ncnc3c(F)ccc(F)c23)ccc1Oc1cc(C(F)(F)F)ccn1` here?
Answer: 121 to 122 °C

Question: For `N#Cc1snc(Cl)c1Cl`, which melting point is on record?
Answer: 84.5 to 85 °C

Question: With `C=CS(=O)(=O)N1CCC(N2N=C(c3ccc(OC)c(OC)c3)[C@H]3CC=CC[C@H]3C2=O)CC1` as the molecule, how does the melting point read?
Answer: 89 to 90 °C

Question: Which melting point does the source give for `CC(=O)N=C(OC(C)=O)N1CCSC1c1ccccc1OCCN1CCN(c2cccc(F)c2)CC1` (stereo unspecified) here?
Answer: 114 to 115 °C

Question: Which melting point does the source give for `COc1cc(OC)c(S(=O)(=O)Cl)c(OC)c1` here?
Answer: 126 to 129 °C

Question: For `CCCc1cc(O)nc(SC)n1`, which melting point is on record?
Answer: 158 °C

Question: Which melting point does the source give for `O=C(COc1cc(C(=O)O)c(O)c2ccccc12)c1ccccc1` here?
Answer: 120 to 121 °C

Question: With `CC(OCc1cc2cc(Cl)ccc2n1S(=O)(=O)c1ccc2c(c1)OCCN2C)C(=O)O` (stereo unspecified) as the molecule, how does the melting point read?
Answer: 68 °C

Question: With `COC=C(C(=O)OC)C1=C(C=Cc2ccccc2)CCC1` as the molecule, how does the melting point read?
Answer: 107 °C

Question: With `FC(F)(F)Oc1ccc(-n2cnc(-c3ccc(CBr)cc3)n2)cc1` as the molecule, how does the melting point read?
Answer: 124 to 126 °C

Question: For `O=C(O)CCCc1cccc(C(=O)c2ccccc2)c1`, which melting point is on record?
Answer: 71 °C

Question: With `O=C1[C@@H]2C[C@H](Oc3ccc(Br)cc3)CN2C(=O)N1c1cc(Cl)cc(Cl)c1` as the molecule, how does the melting point read?
Answer: 116 °C

Question: Which melting point does the source give for `N#CCc1cn2cccc(OCc3ccccc3)c2n1` here?
Answer: 148 to 150 °C

Question: With `COc1ccc(C(=O)Nc2ccc(C(C)(C)C#N)cc2)cc1` as the molecule, how does the melting point read?
Answer: 169 to 171 °C

Question: Which melting point does the source give for `O=C1OC2(CCN(C(=O)Nc3ncc(-c4ccccc4)cn3)CC2)c2cccc(F)c21` here?
Answer: 247 to 249 °C

Question: For `CC(C)(C)OC(=O)N[C@H](Cc1c[nH]c2ccccc12)C(N)=O`, which melting point is on record?
Answer: 142 to 143 °C

Question: With `CC(C)=CCN1Cc2cc(Cl)cc3[nH]c(=S)n(c23)C[C@@H]1C` as the molecule, how does the melting point read?
Answer: 186 °C

Question: With `CN(C)C=NS(=O)(=O)c1cccc(Br)c1` as the molecule, how does the melting point read?
Answer: 122 °C

Question: For `CCCCCN1C(=O)C(NC(=O)C2CCc3ccccc3C2)c2ccccc21` (stereo unspecified), which melting point is on record?
Answer: 127 to 132 °C

Question: With `CC(C)(C)OC(=O)NCCCn1nnnc1S` as the molecule, how does the melting point read?
Answer: 75 to 77 °C

Question: For `CCN(CC)C(=O)CN1C(=O)C(NC(=O)Nc2ccc(Cl)cc2)N=C(c2ccccc2)c2ccccc21` (stereo unspecified), which melting point is on record?
Answer: 284 to 285 °C

Question: With `NS(=O)(=O)c1cc2cc(-c3nc(C(F)(F)F)c[nH]3)ccc2s1` as the molecule, how does the melting point read?
Answer: 285 to 286 °C

Question: For `COC(=O)c1cc2ccc(O)cc2o1`, which melting point is on record?
Answer: 176 to 177 °C

Question: For `C1=Nc2cccc(-c3ccoc3)c2C12COc1cc3c(cc12)OCO3` (stereo unspecified), which melting point is on record?
Answer: 270 to 272 °C

Question: Which melting point does the source give for `Cc1cc(N2C=CNC2N)ccn1` (stereo unspecified) here?
Answer: 167 °C

Question: With `Cc1cc(-c2ccc(F)cc2)c(C=CC=O)o1` as the molecule, how does the melting point read?
Answer: 89 to 90 °C

Question: Which melting point does the source give for `COc1ccc(-c2nc(S(=O)(=O)CC(F)(F)F)[nH]c2-c2ccc(OC)cc2)cc1` here?
Answer: 173 to 174 °C

Question: Which melting point does the source give for `CC(=O)NC[C@H]1CN(c2ccc(N3CCC4(CC3)NCCS4)c(F)c2)C(=O)O1` here?
Answer: 150 to 152 °C

Question: Which melting point does the source give for `COc1ccc(-c2c(Cl)c(CNC(=O)Cn3cncn3)nc3sc4c(c23)CCN(Cc2ccccc2)C4)cc1OC` here?
Answer: 101 to 102 °C

Question: For `COc1cc(Nc2c(C#N)cnc3cc(-c4ccc(CNCCS(=O)(=O)c5ccccc5)o4)ccc23)c(Cl)cc1Cl`, which melting point is on record?
Answer: 123 to 128 °C

Question: With `CC(C)(C)C1=CC(O)(C(F)(F)F)C=C(C(C)(C)C)C1=O` as the molecule, how does the melting point read?
Answer: 93 to 94 °C

Question: With `COc1c(NC(=O)Nc2ccc(Oc3ccoc(=O)c3)c3ccccc23)cc(C(C)(C)C)cc1NS(C)(=O)=O` as the molecule, how does the melting point read?
Answer: 185 to 187 °C

Question: With `COc1cc(Cc2nccc3c(OC(C)=O)cc(OC(C)=O)cc23)cc(OC)c1OC` as the molecule, how does the melting point read?
Answer: 118 to 120 °C

Question: Which melting point does the source give for `CCCCCCCCCCCCCCCCCCOc1cc(OCc2ccccc2)cc(C(=O)OC)c1` here?
Answer: 62 to 64 °C

Question: With `CCCCCCNC(=O)C(CCC(=O)O)NC(=O)C(NC(=O)OC(C)(C)C)C(C)C` (stereo unspecified) as the molecule, how does the melting point read?
Answer: 63 to 65 °C

Question: For `CCC[C@H]1CC[C@H](c2ncc(C(=O)O)cn2)CC1`, which melting point is on record?
Answer: 184 to 186 °C

Question: With `O=C1C(=Cc2ccncc2)CCc2cc(OCCn3ccnc3)ccc21` as the molecule, how does the melting point read?
Answer: 128 to 129 °C

Question: Which melting point does the source give for `CCOC(OCC)N1C(=O)OC(C)(C)c2cc(-c3cc(F)cc(C#N)c3)ccc21` here?
Answer: 123 to 124 °C

Question: With `CCCCCCCCCCCCCCOc1ccc(N)cc1` as the molecule, how does the melting point read?
Answer: 65 to 68 °C

Question: For `COC(=O)/C=C/C=C(\C)c1ccc(OC)cc1`, which melting point is on record?
Answer: 84 to 86 °C

Question: For `O=C(C=Cc1ccc(C(=O)O)cn1)NCCCCN1CCN(C(c2ccccc2)c2ccccc2)CC1`, which melting point is on record?
Answer: 214 to 216 °C

Question: For `COCC1CCCN(/C(C)=C(/C#N)C(N)=S)C1` (stereo unspecified), which melting point is on record?
Answer: 151 to 152 °C

Question: With `COC(=O)C1N2C(=O)C(NC(=O)COc3ccccc3)C2SCC1(C)Nc1ccccc1` (stereo unspecified) as the molecule, how does the melting point read?
Answer: 129 to 130 °C

Question: Which melting point does the source give for `Cc1cccc2c1N(C)C(=O)C(NC(=O)Nc1cccc(-c3nnn[nH]3)c1)N=C2C1CCCCC1` (stereo unspecified) here?
Answer: 199 to 201 °C

Question: Which melting point does the source give for `Cc1cc(C2=NOC(c3cc(Cl)cc(Cl)c3)(C(F)(F)F)C2)ccc1C(=O)NC(N)=O` (stereo unspecified) here?
Answer: 201 to 205 °C

Question: With `CC(=O)NCCn1ccc2ncnc(Nc3ccc(Oc4cccc5sncc45)c(Cl)c3)c21` as the molecule, how does the melting point read?
Answer: 222 to 224 °C

Question: Which melting point does the source give for `CCOC(=O)CC(=O)Nc1ccc(NC(=O)CC(=O)OCC)c([N+](=O)[O-])c1` here?
Answer: 96 to 97 °C

Question: Which melting point does the source give for `COc1cccc(C2(C(N)=O)CCC3(CC2)OCCO3)c1` here?
Answer: 135 to 138 °C

Question: Which melting point does the source give for `CON=C(C)CC(C)(C)Cn1c(C)nc2c(N)nc3ccccc3c21` here?
Answer: 193 to 195 °C

Question: Which melting point does the source give for `O=C1c2ccc(Cl)cc2C(=O)N1c1ccc(Cl)cc1OC(F)(F)F` here?
Answer: 156 to 157 °C

Question: Which melting point does the source give for `O=C(Cl)c1cc(C#Cc2ccccc2)c(C(=O)Cl)cc1C#Cc1ccccc1` here?
Answer: 174 to 180 °C

Question: Which melting point does the source give for `COc1cccc(CO)c1OCc1ccccc1` here?
Answer: 58 to 60 °C

Question: Which melting point does the source give for `N#Cc1ccc(C(=O)N2CCC3(CC2)C(=O)NC(=O)N3Cc2ccccc2)cc1` here?
Answer: 207 to 209 °C

Question: With `NS(=O)(=O)c1ccc(NC(=O)CCl)cc1Cl` as the molecule, how does the melting point read?
Answer: 214 to 216 °C

Question: With `c1ccc(COc2ccc(CCCn3ccnc3)cc2)cc1` as the molecule, how does the melting point read?
Answer: 80 to 81 °C

Question: Which melting point does the source give for `CCCSc1nc[nH]n1` here?
Answer: 53 to 56 °C

Question: Which melting point does the source give for `COCc1nc(N)nc(N)c1-c1cc(Cl)cc(Cl)c1Cl` here?
Answer: 265 to 268 °C

Question: With `COC(=O)c1ccc(/C=C/c2nc(-c3ccccc3)oc2C)cc1` as the molecule, how does the melting point read?
Answer: 164 to 165 °C

Question: With `COC(=O)N=P(c1ccccc1)(c1ccccc1)c1ccccc1CN(C)C` as the molecule, how does the melting point read?
Answer: 95 to 97 °C

Question: With `CCn1cc(C(=O)O)c(=O)c2cc(F)c(C(C)=O)c(F)c21` as the molecule, how does the melting point read?
Answer: 250 to 251 °C

Question: Which melting point does the source give for `Cc1ccccc1Oc1cccc2c1OC(=O)C2` here?
Answer: 110 to 111 °C

Question: With `CCOC(=O)c1c(C)[nH]c2ccc(OC[C@@H](O)CN)cc12` as the molecule, how does the melting point read?
Answer: 66 to 68 °C

Question: Which melting point does the source give for `COc1cc2c(cc1C#Cc1ccccc1)NC(=O)CC(c1cccc(C#N)c1)=N2` here?
Answer: > 250 °C
